Measured values from paper PMC9663686, “Proline, hydroxyproline, and pyrrolidone carboxylic acid derivatives as highly efficient but reversible transdermal permeation enhancers” (Scientific Reports, 2022).
In brackets after ≈: the same amount, converted by molar mass. Marks after values point to notes of the source that are not given here.

Assays:
human skin [1] = experiment: Transepidermal water loss (TEWL) of human skin in vitro, reversibility; conditions: for TEWL 1 h after the sample had been removed / TEWL 4 h after the sample had been removed / TEWL 8 h after the sample had been removed / TEWL 12 h after the sample had been removed / TEWL 24 h after the sample had been removed: 24-h application of 1% enhancer (1% Azone, 5% SDS) in 60% PG; for TEWL 1 h after the sample had been removed / TEWL 4 h after the sample had been removed / TEWL 8 h after the sample had been removed / TEWL 12 h after the sample had been removed / TEWL 24 h after the sample had been removed / TEWL before sample application (baseline): mean ± SEM; for reversibility of TEWL increase: after 24-h application, followed 24 h after removal
Text: (§1) We further investigated the direct effects of the selected enhancers on the skin barrier assessed by TEWL and the electrical impedance of human skin in vitro. TEWL is a method commonly used in dermatology[38] to study, for example, the irritant potential of chemicals, skin barrier recovery, or effect of topical formulations, and permeation enhancers[17],[21],[41]–[44]. Electrical impedance measures the opposition of the skin to alternating electrical current and is inversely proportional to the flux of ions. Thus, increased TEWL or decreased impedance indicates a barrier impairment[45],[46]. Electrical impedance or conductance measurements have been used to screen new enhancers or assess the irritation potential of compounds[13],[15],[17],[21],[32],[44],[47]–[50]. Both TEWL and impedance can distinguish between reversible and irreversible effects of enhancers on skin permeability[17],[21],[40],[44],[51].
(§2) Human skin was mounted in Franz diffusion cells in the same way as for the permeation studies. After 1-h equilibration, basal TEWL and impedance values were recorded. Then, 1% enhancer in 60% PG, 60% PG as a negative control, 1% Azone in 60% PG, or 5% SDS in 60% PG as positive (irreversible) controls was applied on the skin (100 µl/cm^2) for 24 h. The residual sample was washed with PBS and gently blotted dry. At 1, 4, 8, 12, and 24 h after sample removal, TEWL, and impedance values were recorded. TEWL was measured using AquaFlux AF 200 (Biox Systems Ltd, London, UK), employing the condenser-chamber measurement method at 26 ± 1.0 °C and 43 ± 3% relative air humidity. Electrical impedance was measured by LCR meter 4080 (Conrad electronic, Hirschau, Germany, measuring range 20 Ω–10 MΩ, error at kΩ values < 0.5%) operated in parallel mode with an alternating frequency of 120 Hz, which was also used in our previous work[21],[44].
(§3) Samples were removed from the skin after 24 h, and TEWL and impedance values were recorded in predetermined time intervals (1, 4, 8, 12, and 24 h after sample removal). Data are presented as the means ± SEM; n ≥ 3. * statistically significant difference compared to the baseline value before the sample application at p < 0.05. ^+ statistically significant compared to the value 1 h after the sample removal at p < 0.05.^ ≠ statistically significant compared to the control (60% PG without enhancer) at the same time point, at p < 0.05.

human skin [2] = experiment: Electrical impedance of human skin in vitro, reversibility; conditions: for impedance 1 h after the sample had been removed / impedance 4 h after the sample had been removed / impedance 8 h after the sample had been removed / impedance 12 h after the sample had been removed / impedance 24 h after the sample had been removed: 24-h application of 1% enhancer (1% Azone, 5% SDS) in 60% PG; for impedance 1 h after the sample had been removed / impedance 4 h after the sample had been removed / impedance 8 h after the sample had been removed / impedance 12 h after the sample had been removed / impedance 24 h after the sample had been removed / impedance before sample application (baseline): mean ± SEM; for recovery of skin impedance after sample removal: after 24-h application, followed 24 h after removal
Text: as §1, §2, §3

human skin [3] = conditions: 5% DC in PBS/isopropyl alcohol 9:1 on human skin; cited from earlier work
[4] = Diclofenac permeation through human skin in Franz diffusion cells with co-applied enhancer; type: in vitro ADME; conditions: pH 7.4; 3% DC in 60% PG, no enhancer; human skin in vitro; read-out: permeability coefficient of DC (converted)
Protocol: (§4) Donor samples for reversibility and infrared studies contained 1% enhancer in 60% PG. All samples were thoroughly mixed, incubated at 32 °C for 24 h, and, if needed, carefully resuspended before applying on the skin. The effects of the studied enhancers on the solubility of model drugs were assessed as described previously.
(§5) The permeation-enhancing potencies of the prepared compounds were evaluated on human skin in Franz diffusion cells. Human skin was slowly thawed, cut into 2 × 2 cm pieces, fixed in Teflon holders with 1-cm^2 circular permeation areas, and mounted into Franz cells epidermal side up. The acceptor compartment (15.9 ± 0.1 ml) was filled with phosphate-buffered saline at pH 7.4 with 0.005% gentamicin (PBS) and stirred at 32 °C throughout the experiment. The skin integrity was checked by electrical impedance (any skin sample with the impedance < 10 kΩ was excluded). Then, 100 µl of a donor sample (infinite dose) was applied to the skin and covered with a glass slide. Acceptor phase samples (300 µl) were collected at predetermined time intervals for 48 h, to reach steady-state and were replaced by the same volume of fresh PBS. […] The drug concentrations were measured by HPLC (see supplementary data).
(§6) The flux of the model drug through the skin Jss (µg/cm^2/h) was calculated from the linear region of this plot. The enhancement ratio (ER) was calculated as the ratio of flux with and without an enhancer.
(§7) After the permeation experiment, the cells were dismounted, the skin was carefully washed with PBS, and the permeation area of the skin (1 cm^2) was punched off. After heating the skin fragments to 80 °C for 1 min, the epidermis (E) was peeled off the dermis (D), individually weighed and extracted by 1 and 2 ml, respectively, of an extraction solvent (identical to the mobile phase for the drug HPLC analysis, see supplementary data) for 24 h. The drug concentration was measured by HPLC (see supplementary data).

rat skin = conditions: […] DC in ethanol/glycerol/water 6:1:3 on rat skin; cited from earlier work
[5] = Solubility of model drugs (donor sample, PBS); conditions: for solubility: pH 7.4
Protocol: as §4, §5

human skin [6] = experiment: Diclofenac permeation through human skin in Franz diffusion cells with co-applied enhancer; type: in vitro ADME; conditions: 1% enhancer co-applied with 3% DC in 60% PG; for CDERMIS, diclofenac concentration in dermis / CEPIDERMIS, diclofenac concentration in epidermis: after 48 h permeation, mean ± SEM; for ER, enhancement ratio of diclofenac flux: human skin in vitro
Protocol: as §4, §5, §6, §7

human skin [7] = experiment: Theophylline permeation through human skin in Franz diffusion cells with co-applied enhancer; type: in vitro ADME; conditions: for CDERMIS, theophylline concentration in dermis / CEPIDERMIS, theophylline concentration in epidermis / ER, enhancement ratio of theophylline flux (fold increase in flux over control): 1% enhancer co-applied with 5% TH in 60% PG; for CDERMIS, theophylline concentration in dermis / CEPIDERMIS, theophylline concentration in epidermis: after 48 h permeation, mean ± SEM; for ER, enhancement ratio of theophylline flux (fold increase in flux over control): human skin in vitro
Protocol: The prepared enhancers were applied at 1% in 60% aqueous propylene glycol (PG) to human skin in vitro; 60% PG was used as a negative control. PG was selected for its synergy with amphiphilic enhancers. Each model drug was co-applied with the enhancer at infinite dose.
as §4, §5, §6, §7

[8] = DC: free acid form; quoted without reference; cited from earlier work

| SMILES | CDERMIS, diclofenac concentration in dermis (human skin [6]) [µg/mg] | CEPIDERMIS, diclofenac concentration in epidermis (human skin [6]) [µg/mg] | ER, enhancement ratio of diclofenac flux (human skin [6]) | CDERMIS, theophylline concentration in dermis (human skin [7]) [µg/mg] | CEPIDERMIS, theophylline concentration in epidermis (human skin [7]) [µg/mg] | ER, enhancement ratio of theophylline flux (fold increase in flux over control) (human skin [7]) | other results |
| --- | --- | --- | --- | --- | --- | --- | --- |
| CCCCCCCCCCCCN1CCCCCC1=O [Azone, N-dodecylazepan-2-one, reference compound] |  |  |  |  |  |  | TEWL 1 h after the sample had been removed (human skin [1]): 67.7 ± 1.3*^≠ g/m^2/h; TEWL 4 h after the sample had been removed (human skin [1]): 60.7 ± 1.7*^≠ g/m^2/h; TEWL 8 h after the sample had been removed (human skin [1]): 51.9 ± 1.6*^≠+ g/m^2/h; TEWL 12 h after the sample had been removed (human skin [1]): 48.8 ± 2.3*^≠+ g/m^2/h; TEWL 24 h after the sample had been removed (human skin [1]): 48.3 ± 1.4*^≠+ g/m^2/h; reversibility of TEWL increase (human skin [1]): lack of TEWL and impedance reversibility; TEWL before sample application (baseline) (human skin [1]): 28.2 ± 3.6 g/m^2/h; impedance 1 h after the sample had been removed (human skin [2]): 2.6 ± 0.4* kΩ×cm^2; impedance 4 h after the sample had been removed (human skin [2]): 7.8 ± 0.4*^≠ kΩ×cm^2; impedance 8 h after the sample had been removed (human skin [2]): 11.2 ± 0.2*^≠+ kΩ×cm^2; impedance 12 h after the sample had been removed (human skin [2]): 12.2 ± 0.4*^≠+ kΩ×cm^2; impedance 24 h after the sample had been removed (human skin [2]): 12.4 ± 0.8*^≠+ kΩ×cm^2; recovery of skin impedance after sample removal (human skin [2]): lack of TEWL and impedance reversibility; impedance before sample application (baseline) (human skin [2]): 25.1 ± 2.0 kΩ×cm^2 |
| O=C(O)Cc1ccccc1Nc1c(Cl)cccc1Cl [DC, diclofenac] |  |  |  |  |  |  | permeability coefficient of DC (human skin [3]): 2.2 × 10^–5 cm/h; Papp at 48 h, 3 % [4]: 0.0144 ×10⁻⁶ cm/s; permeability coefficient of DC (rat skin): 11.0 × 10^–5 cm/h; solubility ([5]; phosphate-buffered saline): 9450 ± 150 µg/mL (≈ 31.9 mM) |
| CCCCCCCCCCCCOC(=O)C1CC(O)CN1C(C)=O (stereo not drawn) [Hyp2] | 0.90 ± 0.08 | 9.22 ± 0.32 | 3 | 0.20 ± 0.03 | 2.87 ± 0.45 | 10 |  |
| CCCCCCCCCCCCOC(=O)C1CC(O)CN1C(=O)CC (stereo not drawn) [Hyp3] | 0.97 ± 0.07 | 9.18 ± 0.62 | 4 | 0.25 ± 0.07 | 3.64 ± 0.85 |  | ER of epidermal TH concentration (human skin [7]; 1% enhancer with 5% TH in 60% PG, over control): 1.9 |
| CCCCCCCCCCCCOC(=O)C1CC(O)CN1C(=O)CCC (stereo not drawn) [Hyp4] | 1.01 ± 0.05 | 8.99 ± 1.23 | 4 | 0.39 ± 0.07 | 1.96 ± 0.56 | 16 |  |
| CCCCCCCCCCCCOC(=O)C1CC(O)CN1C(=O)CCCC (stereo not drawn) [Hyp5] | 1.02 ± 0.11 | 9.84 ± 1.22 | 5 | 0.23 ± 0.03 | 1.45 ± 0.41 | ~19 |  |
| CCCCCCCCCCCCOC(=O)C1CCC(=O)N1C(C)=O (stereo not drawn) [PCA2] |  |  |  | 0.22 ± 0.03 | 2.33 ± 0.26 | 12 |  |
| CCCCCCCCCCCCOC(=O)C1CCC(=O)N1C(=O)CC (stereo not drawn) [PCA3] |  |  |  | 0.28 ± 0.04 | 2.99 ± 0.37 | 9 |  |
| CCCCCCCCCCCCOC(=O)C1CCC(=O)N1C(=O)CCC (stereo not drawn) [PCA4] |  |  |  | 0.30 ± 0.14 | 2.53 ± 0.23 | 5 |  |
| CCCCCCCCCCCCOC(=O)C1CCC(=O)N1C(=O)CCCC (stereo not drawn) [PCA5] |  |  |  | 0.23 ± 0.07 | 2.14 ± 0.44 | 5 |  |
| CCCCCCCCCCCCOC(=O)C1CCCN1C(=O)CCCC (stereo not drawn) [Pro5] | 1.30 ± 0.25 | 8.51 ± 1.39 |  | 0.26 ± 0.02 | 0.83 ± 0.12 | 24 |  |
| CCCCCCCCCCCCOC(=O)C1CCCN1C(=O)CCCCC (stereo not drawn) [Pro6] | 1.44 ± 0.31 | 10.26 ± 0.38 |  | 0.22 ± 0.03 | 1.14 ± 0.19 | 16 |  |
| CCCCCCCCCCCCOC(=O)C1CCCN1C(=O)CCCCCC (stereo not drawn) [Pro7] | 1.30 ± 0.75 | 8.63 ± 3.11 | 5 | 0.26 ± 0.04 | 0.95 ± 0.09 | 15 |  |
| CCCCCCCCCCCCOC(=O)C1CCCN1C(=O)CCCCCCC (stereo not drawn) [Pro8] | 1.08 ± 0.28 | 10.20 ± 0.96 | 3 | 0.19 ± 0.02 | 0.89 ± 0.25 | 9 |  |
| CCCCCCCCCCCCOS(=O)(=O)[O-].[Na+] [SDS, sodium dodecyl sulfate, reference compound] |  |  |  |  |  |  | TEWL 1 h after the sample had been removed (human skin [1]): 47.3 ± 2.2*^≠ g/m^2/h; TEWL 4 h after the sample had been removed (human skin [1]): 45.8 ± 4.4* g/m^2/h; TEWL 8 h after the sample had been removed (human skin [1]): 38.7 ± 3.1* g/m^2/h; TEWL 12 h after the sample had been removed (human skin [1]): 38.2 ± 2.6* g/m^2/h; TEWL 24 h after the sample had been removed (human skin [1]): 38.0 ± 2.3* g/m^2/h; reversibility of TEWL increase (human skin [1]): lack of TEWL and impedance reversibility; TEWL before sample application (baseline) (human skin [1]): 26.1 ± 2.9 g/m^2/h; impedance 1 h after the sample had been removed (human skin [2]): 1.9 ± 0.2* kΩ×cm^2; impedance 4 h after the sample had been removed (human skin [2]): 3.8 ± 0.2*^≠ kΩ×cm^2; impedance 8 h after the sample had been removed (human skin [2]): 5.0 ± 0.3*^≠ kΩ×cm^2; impedance 12 h after the sample had been removed (human skin [2]): 5.6 ± 0.3*^≠ kΩ×cm^2; impedance 24 h after the sample had been removed (human skin [2]): 6.4 ± 0.3*^≠ kΩ×cm^2; recovery of skin impedance after sample removal (human skin [2]): lack of TEWL and impedance reversibility; impedance before sample application (baseline) (human skin [2]): 26.7 ± 0.7 kΩ×cm^2 |
| Cn1c(=O)c2[nH]cnc2n(C)c1=O [TH, theophylline] |  |  |  |  |  |  | solubility at 24 h [5]: ~25 mg/mL (≈ 139 mM); solubility [5]: 7650 ± 20 µg/mL (≈ 42.5 mM); logP [8]: ~ 0 |
